Measurements from PubChem BioAssay (NCI).
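Cells were grown in 96-well plates and exposed to each compound for 48 hours at five concentrations; endpoints were interpolated linearly between bracketing concentrations, or set to the highest concentration if not reached. Definition used: TGI = concentration required for complete inhibition of growth.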

Key:
Assay in all cases: growth of human tumour cells (NCI), 48 h
HOP-92 NSCLC = test system: HOP-92 NSCLC
SNB-19 CNS = test system: SNB-19 CNS
SF-295 CNS = test system: SF-295 CNS
K-562 leukemia = test system: K-562 leukemia
HOP-18 NSCLC = test system: HOP-18 NSCLC
OVCAR-4 ovarian = test system: OVCAR-4 ovarian
COLO 205 colon = test system: COLO 205 colon
UACC-62 melanoma = test system: UACC-62 melanoma
ACHN renal = test system: ACHN renal
CAKI-1 renal = test system: CAKI-1 renal
MALME-3M melanoma = test system: MALME-3M melanoma
SK-OV-3 ovarian = test system: SK-OV-3 ovarian
A498 renal = test system: A498 renal
SW-620 colon = test system: SW-620 colon
OVCAR-5 ovarian = test system: OVCAR-5 ovarian
SK-MEL-2 melanoma = test system: SK-MEL-2 melanoma
M19-MEL melanoma = test system: M19-MEL melanoma
RXF-631 renal = test system: RXF-631 renal
NCI-H23 lung = test system: NCI-H23 lung
NCI-H522 lung = test system: NCI-H522 lung
U251 CNS = test system: U251 CNS
SK-MEL-28 melanoma = test system: SK-MEL-28 melanoma
TK-10 renal = test system: TK-10 renal
OVCAR-3 ovarian = test system: OVCAR-3 ovarian
DMS 273 small cell lung = test system: DMS 273 small cell lung
SF-539 CNS = test system: SF-539 CNS
786-0 renal = test system: 786-0 renal
OVCAR-8 ovarian = test system: OVCAR-8 ovarian
HCT-116 colon = test system: HCT-116 colon
SNB-78 CNS = test system: SNB-78 CNS
NCI-H226 lung = test system: NCI-H226 lung
DMS 114 small cell lung = test system: DMS 114 small cell lung
HT29 colon = test system: HT29 colon
SF-268 CNS = test system: SF-268 CNS
SK-MEL-5 melanoma = test system: SK-MEL-5 melanoma
SN12C renal = test system: SN12C renal
RXF 393 renal = test system: RXF 393 renal
UO-31 renal = test system: UO-31 renal
EKVX NSCLC = test system: EKVX NSCLC
A549 NSCLC = test system: A549 NSCLC
HCT-15 colon = test system: HCT-15 colon
HOP-62 NSCLC = test system: HOP-62 NSCLC
KM20L2 colon = test system: KM20L2 colon
UACC-257 melanoma = test system: UACC-257 melanoma
NCI-H460 lung = test system: NCI-H460 lung
CCRF-CEM leukemia = test system: CCRF-CEM leukemia
LOX IMVI melanoma = test system: LOX IMVI melanoma
M14 melanoma = test system: M14 melanoma
IGROV1 ovarian = test system: IGROV1 ovarian
HL-60(TB) leukemia = test system: HL-60(TB) leukemia
SNB-75 CNS = test system: SNB-75 CNS
KM12 colon = test system: KM12 colon
LXFL 529 NSCLC = test system: LXFL 529 NSCLC
HCC-2998 colon = test system: HCC-2998 colon
DLD-1 colon = test system: DLD-1 colon
RPMI-8226 leukemia = test system: RPMI-8226 leukemia

For O=C(Cc1nc(-c2ccccc2)cc(=O)n1-c1ccccc1Cl)c1ccncc1, the TGI (HOP-92 NSCLC) was > 100 µM, the TGI (SNB-19 CNS) was > 100 µM and the TGI (SF-295 CNS) was > 100 µM. For the same compound, the TGI (K-562 leukemia) was > 100 µM, the TGI (HOP-18 NSCLC) was > 100 µM and the TGI (OVCAR-4 ovarian) was > 100 µM. For the same compound, the TGI (COLO 205 colon) was > 100 µM, the TGI (UACC-62 melanoma) was > 100 µM and the TGI (ACHN renal) was > 100 µM. For the same compound, the TGI (CAKI-1 renal) was > 100 µM, the TGI (MALME-3M melanoma) was > 100 µM and the TGI (SK-OV-3 ovarian) was > 100 µM. The TGI (A498 renal) was > 100 µM, the TGI (SW-620 colon) was > 100 µM and the TGI (OVCAR-5 ovarian) was > 100 µM. The TGI (SK-MEL-2 melanoma) was > 100 µM, the TGI (M19-MEL melanoma) was > 100 µM and the TGI (RXF-631 renal) was > 100 µM. The TGI (NCI-H23 lung) was > 100 µM, the TGI (NCI-H522 lung) was > 100 µM and the TGI (U251 CNS) was > 100 µM. For the same compound, the TGI (SK-MEL-28 melanoma) was > 100 µM, the TGI (TK-10 renal) was > 100 µM and the TGI (OVCAR-3 ovarian) was > 100 µM. The TGI (DMS 273 small cell lung) was > 100 µM, the TGI (SF-539 CNS) was > 100 µM and the TGI (786-0 renal) was > 100 µM. The TGI (OVCAR-8 ovarian) was > 100 µM, the TGI (HCT-116 colon) was > 100 µM and the TGI (SNB-78 CNS) was > 100 µM. For the same compound, the TGI (NCI-H226 lung) was > 100 µM, the TGI (DMS 114 small cell lung) was > 100 µM and the TGI (HT29 colon) was > 100 µM. The TGI (SF-268 CNS) was > 100 µM, the TGI (SK-MEL-5 melanoma) was > 100 µM and the TGI (SN12C renal) was > 100 µM. For the same compound, the TGI (RXF 393 renal) was > 100 µM, the TGI (UO-31 renal) was > 100 µM and the TGI (EKVX NSCLC) was > 100 µM. For the same compound, the TGI (A549 NSCLC) was > 100 µM, the TGI (HCT-15 colon) was > 100 µM and the TGI (HOP-62 NSCLC) was > 100 µM. For the same compound, the TGI (KM20L2 colon) was > 100 µM, the TGI (UACC-257 melanoma) was > 100 µM and the TGI (NCI-H460 lung) was > 100 µM. For the same compound, the TGI (CCRF-CEM leukemia) was > 100 µM, the TGI (LOX IMVI melanoma) was > 100 µM and the TGI (M14 melanoma) was > 100 µM. The TGI (IGROV1 ovarian) was > 100 µM, the TGI (HL-60(TB) leukemia) was > 100 µM and the TGI (SNB-75 CNS) was 82.6 µM. For the same compound, the TGI (KM12 colon) was > 100 µM, the TGI (LXFL 529 NSCLC) was > 100 µM and the TGI (HCC-2998 colon) was > 100 µM. For the same compound, the TGI (DLD-1 colon) was > 100 µM.

With CC(C)C(N=c1c2ccccc2n(O)c2ccccc12)C(=O)O (stereo not drawn) the TGI (SNB-19 CNS) was > 100 µM, the TGI (SF-295 CNS) was > 100 µM and the TGI (K-562 leukemia) was > 100 µM. For the same compound, the TGI (HOP-18 NSCLC) was > 100 µM, the TGI (OVCAR-4 ovarian) was > 100 µM and the TGI (COLO 205 colon) was > 100 µM. For the same compound, the TGI (UACC-62 melanoma) was > 100 µM, the TGI (ACHN renal) was > 100 µM and the TGI (CAKI-1 renal) was > 100 µM. The TGI (MALME-3M melanoma) was > 100 µM, the TGI (SK-OV-3 ovarian) was > 100 µM and the TGI (A498 renal) was > 100 µM. The TGI (SW-620 colon) was > 100 µM, the TGI (OVCAR-5 ovarian) was > 100 µM and the TGI (SK-MEL-2 melanoma) was > 100 µM. The TGI (M19-MEL melanoma) was > 100 µM, the TGI (RXF-631 renal) was > 100 µM and the TGI (NCI-H23 lung) was > 100 µM. For the same compound, the TGI (NCI-H522 lung) was > 100 µM, the TGI (U251 CNS) was > 100 µM and the TGI (SK-MEL-28 melanoma) was > 100 µM. The TGI (TK-10 renal) was > 100 µM, the TGI (OVCAR-3 ovarian) was > 100 µM and the TGI (DMS 273 small cell lung) was > 100 µM. The TGI (786-0 renal) was > 100 µM, the TGI (OVCAR-8 ovarian) was > 100 µM and the TGI (HCT-116 colon) was > 100 µM. The TGI (SNB-78 CNS) was > 100 µM, the TGI (RPMI-8226 leukemia) was > 100 µM and the TGI (NCI-H226 lung) was > 100 µM. The TGI (DMS 114 small cell lung) was > 100 µM, the TGI (HT29 colon) was > 100 µM and the TGI (SF-268 CNS) was > 100 µM. The TGI (SK-MEL-5 melanoma) was > 100 µM, the TGI (SN12C renal) was > 100 µM and the TGI (UO-31 renal) was > 100 µM. For the same compound, the TGI (EKVX NSCLC) was > 100 µM, the TGI (A549 NSCLC) was > 100 µM and the TGI (HCT-15 colon) was > 100 µM. For the same compound, the TGI (HOP-62 NSCLC) was > 100 µM, the TGI (KM20L2 colon) was > 100 µM and the TGI (UACC-257 melanoma) was > 100 µM. For the same compound, the TGI (NCI-H460 lung) was > 100 µM, the TGI (CCRF-CEM leukemia) was > 100 µM and the TGI (LOX IMVI melanoma) was > 100 µM. For the same compound, the TGI (M14 melanoma) was > 100 µM, the TGI (IGROV1 ovarian) was > 100 µM and the TGI (HL-60(TB) leukemia) was > 100 µM. For the same compound, the TGI (SNB-75 CNS) was > 100 µM, the TGI (KM12 colon) was > 100 µM and the TGI (LXFL 529 NSCLC) was > 100 µM. The TGI (HCC-2998 colon) was > 100 µM and the TGI (DLD-1 colon) was > 100 µM.
